Data from US20210198284A1, “GOLD COMPOSITIONS AND METHODS OF USE THEREOF” (THE UNIVERSITY OF MASSACHUSETTS, priority 2018, published 2021).

Key:
Type in all cases: cell-based
A. baumannii NCTC 13420 = test: Antibacterial assay, MIC/MBC by broth microdilution (CLSI)
In short: (§1)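 CLSI broth microdilution in cation-adjusted Mueller Hinton broth, log-phase inoculum diluted to 7.5×10^5 CFU/mL before 1:1 mixing with two-fold compound dilutions, triplicates, 18 h at 37 °C static. MIC: >90% inhibition by OD600; MBC: lowest concentration giving no colonies after 5 μL spotted on agar, 18 h, 37 °C.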

E. cloacae NCTC 13405 = test: as above; settings: for MBC (in brackets) / MIC: E. cloacae NCTC 13405; for MIC: repeated twice, a/b = both values
In short: as §1

E. coli ATCC 25922 = test: as above; settings: for MIC: repeated twice, a/b = both values
In short: as §1

E. faecalis ATCC 700221 = test: as above; settings: for MIC: repeated twice, a/b = both values
In short: as §1

[1] = system: K. pneumoniae ATCC 700603; test: as above
In short: as §1

P. aeruginosa NCTC 13437 = test: as above; settings: for MBC (in brackets) / MIC: P. aeruginosa NCTC 13437; for MIC: repeated twice, a/b = both values
In short: as §1

S. aureus JE2 (USA300) = test: as above; settings: for MBC (in brackets) / MIC: S. aureus JE2 (USA300); for MIC: repeated twice, a/b = both values
In short: as §1

A549 cells = test: Cytotoxicity assay (resazurin); settings: 20 h, mean±S.E.M. from two independent experiments
In short: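 A549 cells (5×10^3/well) were exposed to two-fold serial dilutions from 128 μg/mL (compounds 9-17 from 1,280 μg/mL) for 20 h at 37 °C. Resazurin was then added for 3 h and fluorescence read at ex 560/em 590 nm. IC50 came from curve fitting of inhibition vs log concentration; triplicates, repeated twice.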

[2] = A. baumannii NCTC 13420, repeated twice, a/b = both values
[3] = K. pneumoniae ATCC 700603, repeated twice, a/b = both values

Row | Substance | MBC (in brackets) (A. baumannii NCTC 13420; A. baumannii NCTC 13420) | MIC (A. baumannii NCTC 13420; [2]) | MBC (in brackets) (E. cloacae NCTC 13405) | MIC (E. cloacae NCTC 13405) | MBC (in brackets) (E. coli ATCC 25922) | MIC (E. coli ATCC 25922) | MBC (in brackets) (E. faecalis ATCC 700221) | MIC (E. faecalis ATCC 700221) | MBC (in brackets) ([1]; K. pneumoniae ATCC 700603) | MIC [1, 3] | MBC (in brackets) (P. aeruginosa NCTC 13437) | MIC (P. aeruginosa NCTC 13437) | MBC (in brackets) (S. aureus JE2 (USA300)) | MIC (S. aureus JE2 (USA300)) [μM/mL] | IC50 against A549 cells (A549 cells) [µg/mL] | further results
1 | (2-Aminobenzenethiolato)(triethylphosphine) gold(I) [Compound 19] | 18 μM/mL | 18/36 | (36/73) | 18/73 | 36 (36) μM/mL | 36 (36) μM/mL | (0.1) μM/mL | 0.02 μM/mL | 146 (146) μM/mL | 146 (146) μM/mL | 291 (291) μM/mL | 291 (291) μM/mL | (0.6) μM/mL | 0.009 | 7.5 ± 0.1 | MIC values in words (S. aureus JE2 (USA300); S. aureus): nanomolar range
2 | (2,3,4,6-Tetra-O-acetyl-1-thio-β-D-glucopyranosato) (triethylphosphine) gold(I) [Compound 1, reference compound] | 47(47) μM/mL | 47(47) μM/mL | 189 (189) μM/mL | 189 (189) μM/mL | 24 (24) μM/mL | 24 (24) μM/mL | – | – | 377 (377) μM/mL | 377 (377) μM/mL | 377 (377) μM/mL | 377 (377) μM/mL | (0.09) μM/mL | 0.04 | 7.7 ± 1.3 | MIC/MBC (A. baumannii NCTC 13420; A. baumannii): 47 µM; MIC/MBC ([1]; K. pneumoniae): 377 µM
3 | (2-Mercaptoethanolato)(trimethylphosphine) gold (I) [Compound 27] | 23 μM/mL | 6/3 | 3 (3) μM/mL | 3 (3) μM/mL | 11 μM/mL | 1/6 | 0.3 (0.3) μM/mL | 0.3 (0.3) μM/mL | 23 μM/mL | 11 μM/mL | 91 μM/mL | 23/91 | 0.7 μM/mL | 0.3 | 12.3 ± 3.1 | MIC (A. baumannii NCTC 13420; A. baumannii): 5.7 µM; MIC/MBC (E. cloacae NCTC 13405; E. cloacae): 2.9 µM; MIC/MBC, fold lower than / improvement over auranofin (E. cloacae NCTC 13405; E. cloacae): 65 fold; MIC ([1]; K. pneumoniae): 11 µg/mL; MIC or MIC/MBC, fold lower than auranofin ([1]; K. pneumoniae): 34 fold; activity in words (P. aeruginosa NCTC 13437; P. aeruginosa): showed activity
4 | [2,3,4,6-Tetra-O-acetyl-α-D-glucopyranosyl (1→4)-2,3,6-tri-O-acetyl-1-thio-β-D-glucopyranosato](triethylphosphine) gold(I) [Compound 5] | 33 (33) μM/mL | 33 (33) μM/mL | 66 (66) μM/mL | 66 (66) μM/mL | 17 (17) μM/mL | 17 (17) μM/mL | 6 (0.1) μM/mL | – | – | >265 μM/mL | 132 (132) μM/mL | 132 (132) μM/mL | (0.06) μM/mL | 0.008 | 15.2 ± 0.3 | –
